Test results from the CheMixHub drug solubility set.

Experiment: xn = mol fraction of the nth substance listed, in the solute-free solvent

O=C(O)c1cc([N+](=O)[O-])ccc1O + CCCO + O
solubility (g/100 g solution)
Conditions	278.15 K	283.15 K	288.15 K	293.15 K	298.15 K	303.15 K	308.15 K	313.15 K	318.15 K	323.15 K
x2 = 0.03225	0.0803	0.104	0.134	0.171	0.216	0.26	0.316	0.38	0.458	0.542
x2 = 0.06974	0.189	0.227	0.294	0.366	0.45	0.559	0.678	0.817	1.01	1.24
x2 = 0.1139	0.45	0.55	0.689	0.87	1.08	1.3	1.55	1.79	2.07	2.41
x2 = 0.1666	0.839	1.02	1.3	1.63	2.02	2.42	2.82	3.28	3.77	4.3
x2 = 0.2307	1.52	1.91	2.38	2.94	3.59	4.22	4.85	5.61	6.41	7.29
x2 = 0.3103	2.34	2.82	3.45	4.11	4.94	5.73	6.68	7.75	8.82	10.2
x2 = 0.4117	3.55	4.17	4.92	5.66	6.64	7.67	8.85	9.98	11.2	12.6
x2 = 0.5454	4.75	5.34	6.09	7.02	8.12	9.33	10.6	12	13.4	15.1
x2 = 0.7297	5.59	6.57	7.78	8.73	9.96	11.3	12.4	13.8	15.2	16.8

Oc1ccc(Cl)c2cccnc12 + C1COCCO1 + CCO
solubility (g/100 g solution)
Conditions	278.15 K	283.15 K	288.15 K	293.15 K	298.15 K	303.15 K	308.15 K	313.15 K	318.15 K	323.15 K
x2 = 0.1156	2.02	2.27	2.73	3.17	3.66	4.34	5.1	5.96	7.04	8.35
x2 = 0.2585	3.35	3.86	4.46	5.19	6.15	7.28	8.38	9.82	11.4	13.3
x2 = 0.4396	4.92	5.68	6.53	7.56	8.72	10.3	11.9	13.8	15.9	18.2
x2 = 0.6765	6.81	7.83	8.96	10.3	11.8	13.8	15.8	17.9	20.5	23.3
